{"source": "patent US10251835B2", "about": "“Cranial delivery of pharmaceuticals” (GLIA, LLC, priority 2013, dated 2019)", "key": {"[1]": {"tested_on": "patients with ocular discomfort resulting from dry eye", "assay": "Treatment of dry eye with topical progesterone applied cranially", "assay_type": "in vivo, human", "description": "Twenty-seven patients diagnosed with ocular discomfort resulting from dry eye were treated with topical progesterone (0.5%-1% by weight, corresponding to approximately 1-4 mg progesterone per application) applied to the forehead either once or twice per day.\nA summary of clinical results is shown below in Table 2."}, "[2]": {"tested_on": "dogs with mucus discharge from the eyes", "assay": "Treatment of dry eye in domestic animals", "assay_type": "in vivo, dog", "description": "A puggle presented with mucus discharge from the eyes. […] The owner reported that the dog has this problem spring and fall, which indicates it is allergic seasonal rhinitis. The reported use took place in the fall.\nA bulldog diagnosed with Sjogren's syndrome had mucus discharge from the eyes."}, "[3]": {"tested_on": "females with wrist fracture pain or wrist arthritis", "assay": "Treatment of pain", "assay_type": "in vivo, human", "conditions": "person", "description": "A person suffered a wrist fracture of the left distal radius and ulnar styloid, with subsequent severe pain.\nA person was diagnosed 10 years ago with arthritis in their right wrist, with pain, weakness, and limited motion in the hand and wrist. […] The condition has worsened since they were first diagnosed. The individual is being treated with regular steroid injections. […] They are able to twist open tightly closed containers. Additionally, bone snapping sounds and feelings are no longer present."}, "patients with dyslexia": {"tested_on": "patients with dyslexia", "assay": "Treatment of dyslexia and impaired executive brain function exacerbated by traumatic brain injury", "assay_type": "in vivo, human", "conditions": "person", "description": "A patient had been diagnosed in childhood with dyslexia. Symptoms included unstable binocular fixation while reading, the inability without compensating to find the end of one line and beginning of the next, and double overlapping perception of lines of print. They were also unable to read aloud in a fluid manner.\nThe individual applied a topical gel containing 4% by weight progesterone (4 mg of drug) to the forehead area.\nThe application was repeated twice over the next few days and the patient tested themself by reading text.\nRegular treatment was continued for 10 weeks with the 4% progesterone gel applied to the forehead twice daily. The patient reported that in living with dyslexia for 52 years, they had never experienced as much stress relief in their visual system after the treatment.\nAfter 8 weeks of treatment, the individual was asked to read aloud a complex paragraph of 8 sentences from their computer screen.\nTreatment was interrupted after 10 weeks to determine the duration of benefit.\nSeven years prior to initiation of progesterone topical treatment, the patient had suffered traumatic brain injury (TBI) in an auto accident. They reported exacerbation of their vision problems as a result of the accident.\nAfter the crash they suffered from post-traumatic stress disorder triggered by loud sounds. The patient could not even listen to music because it would induce nausea. Two months after initiation of the progesterone treatment, they regained a good deal of social conformability, improved their ability to organize thoughts, eliminated their disjointed thinking, and gained the ability to write coherently.\nA person who had been diagnosed with severe reading problems in third grade was later recognized as having dyslexia. Their reading problems became exacerbated by an automobile accident in 1980, following six months of coma. In general reading was a chore. However they made a concerted effort to learn to read, starting with children's books, and is now able to read regular print. Reading issues were exemplified by the need to place a ruler below each line so that they can follow the line and find the next line, and seeing letters backwards. They are not able to read small print at all. About 4 years ago their vision became worse. They were prescribed glasses that they use during periods when vision is worse than usual, whether near, intermediate, or far in distance.\nA 1% progesterone topical composition was applied to forehead. […] The effect lasted from the time of application, around 7:30 pm to bedtime at around 11 pm."}, "[4]": {"tested_on": "post-surgical patients on glaucoma medication", "assay": "Treatment of ocular discomfort and redness in post-surgical patients and patients on glaucoma medication", "assay_type": "in vivo, human", "conditions": "1% progesterone to forehead, three times daily or 2-3 times then once a day", "description": "A […] […] had four eye surgeries and was being treated with two glaucoma eye drops (dorzolamide-timolol combination and travaprost) together with a lubricating eye gel twice a day.\nA […] […] had multiple surgeries and was diagnosed with Fuch's corneal dystrophy and narrow angle glaucoma. Prior to the latest surgery, when they were almost legally blind, they started applying to their forehead 1% progesterone 2-3 times a day, then reduced the application frequency to once a day."}, "[5]": {"tested_on": "male and female with cyclosporine-induced eye irritation", "assay": "Treatment of drug-induced eye irritation", "assay_type": "in vivo, human", "conditions": "1% progesterone to forehead after cleaning off drug residual; within two minutes", "description": "Ten minutes later, drug residual was cleaned off from the forehead, and 1% progesterone was applied."}, "[6]": {"tested_on": "patient with corneal Herpes zoster", "assay": "Treatment of herpetic keratitis", "assay_type": "in vivo, human", "conditions": "one year, 1 mg progesterone to forehead 2 or 3 times a day, no other drugs"}, "[7]": {"tested_on": "subject with left-side trigeminal neuralgia and facial droop", "assay": "Treatment of trigeminal neuralgia and facial palsy", "assay_type": "in vivo, human", "conditions": "progesterone 1% (1 mg) four times daily to forehead followed by 0.15 g ganciclovir (0.15% formulation) up to five times daily", "description": "A subject presented with left-side trigeminal neuralgia and left side facial droop of 10 years duration. Therapy was initiated by topically applying progesterone (1% by weight) equivalent to 1 mg four times daily to the patient's forehead. This was followed by application of 0.15 g ganciclovir (as a 0.15% by weight formulation) up to five times daily."}, "[8]": {"conditions": "1% progesterone topical composition to forehead"}}, "note": "Entries after “also recorded” stand apart in the source; their conditions may differ.", "data": [{"smiles": "CC(=O)[C@H]1CC[C@H]2[C@@H]3CCC4=CC(=O)CC[C@]4(C)[C@H]3CC[C@]12C", "note": "[progesterone]", "values": [{"measurement": "Results", "setting": "[1]; 0.5-1% on the forehead, once daily", "value": "After prolonged use, no longer requires; also recorded: Eyes moist and tearing minutes after; also recorded: application. Stopped all auxiliary eye"}, {"measurement": "Results", "setting": "[1]; 1% progesterone ON", "value": "Equally effective. Uses nightly once a day"}, {"measurement": "overall clinical result in twenty-seven dry eye patients", "setting": "[1]; progesterone 0.5%-1% (about 1-4 mg per application) to forehead once or twice per day", "value": "Improvement was seen in all cases; also recorded: Most patients were able to discontinue previous therapy"}, {"measurement": "time until moisture felt", "setting": "[1]; subject 4, 1% progesterone", "value": "moisture felt after 10 minutes; after weeks"}, {"measurement": "time to effect on mucus discharge from the eyes", "setting": "[2]; progesterone to the dog's forehead (puggle; bulldog with Sjogren's syndrome)", "value": "≤ 24", "unit": "h"}, {"measurement": "mucus discharge from the eyes", "setting": "[2]; progesterone topical forehead treatment, daily", "value": "the problem no longer recurred; also recorded: cessation of mucus discharge"}, {"measurement": "wrist pain, mobility and strength", "setting": "[3]; arthritis, five days after applying 1% progesterone to forehead", "value": "significantly less wrist pain and increased mobility and strength"}, {"measurement": "time to significant decrease in pain", "setting": "[3]; wrist fracture, approximately 4 mg progesterone to forehead", "value": "≤ 15", "unit": "min"}, {"measurement": "reading and vision (patient report)", "setting": "patients with dyslexia; [8]", "value": "able to read without using; also recorded: distance vision also improved; also recorded: no longer bothered by the headlight glare; also recorded: Reapplication next morning restored vision improvements"}, {"measurement": "time until they could feel a clearing in their head", "setting": "patients with dyslexia; [8]", "value": "About 5 minutes"}, {"measurement": "reading ability and visual system (patient report)", "setting": "patients with dyslexia; 4% progesterone gel to forehead, single applications then twice daily up to 10 weeks", "value": "effect lasting for hours; also recorded: slightly better and easier reading and line tracking; also recorded: lasted for about four hours; also recorded: able to track from one end of a line of text to the beginning of the next line without using a ruler; also recorded: read aloud with less choppiness; also recorded: accurate and fluid with only one word lapse"}, {"measurement": "executive function and stress after traumatic brain injury", "setting": "patients with dyslexia; 4% progesterone gel to forehead, two months", "value": "improved executive function; also recorded: much lower level of stress; also recorded: ability to do simple math in their head"}, {"measurement": "time until eyes relaxed into alignment", "setting": "patients with dyslexia; gel 4% progesterone (4 mg) to forehead", "value": "≤ 60", "unit": "s"}, {"measurement": "duration of benefit after interruption", "setting": "patients with dyslexia; ten days after stopping 10 weeks of 4% progesterone gel", "value": "continued benefit with only slight degradation"}, {"measurement": "ocular discomfort, redness and need for lubricating drops", "setting": "[4]", "value": "able to stop using the lubricating drops; also recorded: Redness also disappeared; also recorded: helped to ease irritation, lid sticking and redness"}, {"measurement": "relief of cyclosporine-induced irritation and stinging", "setting": "[5]", "value": "irritation and stinging began to dissipate"}, {"measurement": "corneal perforation", "setting": "[6]", "value": "the cornea remained unperforated"}, {"measurement": "facial muscles contracted for 10 years", "setting": "[7]", "value": "relaxation of facial muscles"}]}]}
